Test results from patent publication US7585874B2, “Aryl-isoxazol-4-yl-imidazo[1,2-a]pyridine derivatives” (Hoffmann-La Roche Inc., priority 2006, dated 2009).

Molecular target: T1, GABA A receptor α5β3γ2 (Homo sapiens, UniProt P18507+P31644)
T1 construct: expressed in transfected cells; host or cells: HEK293 (transiently transfected; membranes)
Assay: [3H]flumazenil competition binding, membranes of HEK293 cells expressing human GABA A α5β3γ2
Conditions: human α5β3γ2 in HEK293 (transiently transfected); 0.5 nM [3H]flumazenil; 1 hour at 4° C.; means of two determinations; read-out: Ki[nM]hα5
Method: The affinity of compounds at GABA A receptor subtypes was measured by competition for [3H]flumazenil (85 Ci/mmol; Roche) binding to HEK293 cells expressing rat (stably transfected) or human (transiently transfected) receptors of composition α1β3γ2, α2β3γ2, α3β3γ2 and α5β3γ2.
Cell pellets were suspended in Krebs-tris buffer (4.8 mM KCl, 1.2 mM CaCl2, 1.2 mM MgCl2, 120 mM NaCl, 15 mM Tris; pH 7.5; binding assay buffer), homogenized by polytron for ca. 20 sec on ice and centrifuged for 60 min at 4° C. (50000 g; Sorvall, rotor: SM24=20000 rpm). The cell pellets were resuspended in Krebs-tris buffer and homogenized by polytron for ca. 15 sec on ice. Protein was measured (Bradford method, Bio-Rad) and aliquots of 1 mL were prepared and stored at −80° C.
Radioligand binding assays were carried out in a volume of […] (96-well plates) which contained […] of cell membranes, [3H]flumazenil at a concentration of 1 nM for α1, α2, α3 subunits and 0.5 nM for α5 subunits and the test compound in the range of […]. Nonspecific binding was defined by 10^−5 M diazepam and typically represented less than 5% of the total binding. Assays were incubated to equilibrium for 1 hour at 4° C. and harvested onto GF/C uni-filters (Packard) by filtration using a Packard harvester and washing with ice-cold wash buffer 50 mM Tris; pH 7.5). After drying, filter-retained radioactivity was detected by liquid scintillation counting. Ki values were calculated using Excel-Fit (Microsoft) and are the means of two determinations.

Row | SMILES | Ki
1 | Cc1onc(-c2ccccc2)c1-c1cn2ccc(N)cc2n1 [Example 46, 2-(5-Methyl-3-phenyl-isoxazol-4-yl)-imidazo[1,2-a]pyridin-7-ylamine] | 90.3 nM
2 | Cc1onc(-c2ccccc2)c1-c1cn2cc(C(=O)NC3CCC3)ccc2n1 [Example 34, 2-(5-Methyl-3-phenyl-isoxazol-4-yl)-imidazo[1,2-a]pyridine-6-carboxylic acid cyclobutylamide] | 19.8 nM
3 | Cc1onc(-c2ccccc2)c1-c1cn2ccc(C(=O)NC3CCC3)cc2n1 [Example 14, 2-(5-Methyl-3-phenyl-isoxazol-4-yl)-imidazo[1,2-a]pyridine-7-carboxylic acid cyclobutylamide] | 168 nM
4 | COC(=O)c1ccn2cc(-c3c(-c4ccccc4)noc3C)nc2c1 [Example 10, 2-(5-Methyl-3-phenyl-isoxazol-4-yl)-imidazo[1,2-a]pyridine-7-carboxylic acid methyl ester] | 150 nM
5 | Cc1onc(-c2ccccc2)c1-c1cn2cc(C#N)ccc2n1 [Example 28, 2-(5-Methyl-3-phenyl-isoxazol-4-yl)-imidazo[1,2-a]pyridine-6-carbonitrile] | 173 nM
6 | Cc1onc(-c2ccccc2)c1-c1cn2cc(N3CCCC3=O)ccc2n1 [Example 63, 1-[2-(5-Methyl-3-phenyl-isoxazol-4-yl)-imidazo[1,2-a]pyridin-6-yl]-pyrrolidin-2-one] | 48.7 nM
7 | CCOC(=O)c1ccc2nc(-c3c(-c4ccccc4)noc3C)cn2c1 [Example 30, 2-(5-Methyl-3-phenyl-isoxazol-4-yl)-imidazo[1,2-a]pyridine-6-carboxylic acid ethyl ester] | 154 nM
8 | Cc1onc(-c2ccccc2)c1-c1cn2ccccc2n1 [Example 1, 2-(5-Methyl-3-phenyl-isoxazol-4-yl)-imidazo[1,2-a]pyridine] | 167 nM
9 | Cc1onc(-c2ccccc2)c1-c1cn2ccc(C(=O)NCCCN3CCOCC3)cc2n1 [Example 19, 2-(5-Methyl-3-phenyl-isoxazol-4-yl)-imidazo[1,2-a]pyridine-7-carboxylic acid (3-morpholin-4-yl-propyl)-amide] | 124 nM
10 | Cc1onc(-c2ccccc2)c1-c1cn2ccc(C(=O)NCCN3CCOCC3)cc2n1 [Example 18, 2-(5-Methyl-3-phenyl-isoxazol-4-yl)-imidazo[1,2-a]pyridine-7-carboxylic acid (2-morpholin-4-yl-ethyl)-amide] | 159 nM
11 | COC(=O)c1ccc2nc(-c3c(-c4ccccc4)noc3C)cn2c1 [Example 29, 2-(5-Methyl-3-phenyl-isoxazol-4-yl)-imidazo[1,2-a]pyridine-6-carboxylic acid methyl ester] | 117 nM
12 | Cc1onc(-c2ccccc2)c1-c1cn2cc(C(=O)NC3CCOCC3)ccc2n1 [Example 37, 2-(5-Methyl-3-phenyl-isoxazol-4-yl)-imidazo[1,2-a]pyridine-6-carboxylic acid (tetrahydro-pyran-4-yl)-amide] | 6.8 nM
13 | Cc1onc(-c2ccccc2)c1-c1cn2ccc(C(=O)NCc3cccnc3)cc2n1 [Example 21, 2-(5-Methyl-3-phenyl-isoxazol-4-yl)-imidazo[1,2-a]pyridine-7-carboxylic acid (pyridin-3-ylmethyl)-amide] | 97 nM
14 | Cc1onc(-c2ccccc2)c1-c1cn2cc(NC(=O)Cc3cccnc3)ccc2n1 [Example 56, N-[2-(5-Methyl-3-phenyl-isoxazol-4-yl)-imidazo[1,2-a]pyridin-6-yl]-2-pyridin-3-yl-acetamide] | 54.3 nM
15 | Cc1onc(-c2ccccc2)c1-c1cn2cc(C(=O)NCc3ccco3)ccc2n1 [Example 43, 2-(5-Methyl-3-phenyl-isoxazol-4-yl)-imidazo[1,2-a]pyridine-6-carboxylic acid (furan-2-ylmethyl)-amide] | 36.9 nM
16 | Cc1onc(-c2ccccc2)c1-c1cn2c(-n3ccnc3)cccc2n1 [Example 67, 5-Imidazol-1-yl-2-(5-methyl-3-phenyl-isoxazol-4-yl)-imidazo[1,2-a]pyridine] | 13.4 nM
17 | Cc1onc(-c2ccccc2)c1-c1cn2ccc(NC(=O)Cc3cccnc3)cc2n1 [Example 47, N-[2-(5-Methyl-3-phenyl-isoxazol-4-yl)-imidazo[1,2-a]pyridin-7-yl]-2-pyridin-3-yl-acetamide] | 50.7 nM
18 | Cc1onc(-c2ccccc2)c1-c1cn2cccc(C)c2n1 [Example 2, 8-Methyl-2-(5-methyl-3-phenyl-isoxazol-4-yl)-imidazo[1,2-a]pyridine] | 232 nM
19 | Cc1onc(-c2ccccc2)c1-c1cn2ccc(C(=O)NC3CCOCC3)cc2n1 [Example 17, 2-(5-Methyl-3-phenyl-isoxazol-4-yl)-imidazo[1,2-a]pyridine-7-carboxylic acid (tetrahydro-pyran-4-yl)-amide] | 96 nM
20 | C#CCNC(=O)c1ccn2cc(-c3c(-c4ccccc4)noc3C)nc2c1 [Example 12, 2-(5-Methyl-3-phenyl-isoxazol-4-yl)-imidazo[1,2-a]pyridine-7-carboxylic acid prop-2-ynylamide] | 72.3 nM
21 | Cc1onc(-c2ccccc2)c1-c1cn2ccc(NC(=O)C3CCC3)cc2n1 [Example 49, Cyclobutanecarboxylic acid [2-(5-methyl-3-phenyl-isoxazol-4-yl)-imidazo[1,2-a]pyridin-7-yl]-amide] | 80.5 nM
22 | Cc1onc(-c2ccccc2)c1-c1cn2ccc(C(=O)NC3CC3)cc2n1 [Example 13, 2-(5-Methyl-3-phenyl-isoxazol-4-yl)-imidazo[1,2-a]pyridine-7-carboxylic acid cyclopropylamide] | 87.4 nM
23 | Cc1onc(-c2ccccc2)c1-c1cn2cc(I)ccc2n1 [Example 52, 6-Iodo-2-(5-methyl-3-phenyl-isoxazol-4-yl)-imidazo[1,2-a]pyridine] | 143 nM
24 | Cc1onc(-c2ccccc2)c1-c1cn2cc(C(=O)NCc3ccncc3)ccc2n1 [Example 42, 2-(5-Methyl-3-phenyl-isoxazol-4-yl)-imidazo[1,2-a]pyridine-6-carboxylic acid (pyridin-4-ylmethyl)-amide] | 85.5 nM
25 | Cc1onc(-c2ccccc2)c1-c1cn2cc(C(=O)NCC3CC3)ccc2n1 [Example 31, 2-(5-Methyl-3-phenyl-isoxazol-4-yl)-imidazo[1,2-a]pyridine-6-carboxylic acid cyclopropylmethyl-amide] | 23.9 nM
26 | Cc1ccn2cc(-c3c(-c4ccccc4)noc3C)nc2c1 [Example 8, 7-Methyl-2-(5-methyl-3-phenyl-isoxazol-4-yl)-imidazo[1,2-a]pyridine] | 81.7 nM
27 | Cc1onc(-c2ccccc2)c1-c1cn2cc(-n3cccn3)ccc2n1 [Example 65, 2-(5-Methyl-3-phenyl-isoxazol-4-yl)-6-pyrazol-1-yl-imidazo[1,2-a]pyridine] | 41.1 nM
28 | Cc1onc(-c2ccccc2)c1-c1cn2ccc(NC(=O)c3cccnc3)cc2n1 [Example 51, N-[2-(5-Methyl-3-phenyl-isoxazol-4-yl)-imidazo[1,2-a]pyridin-7-yl]-nicotinamide] | 76.2 nM
